Experimental data taken from article PMC6950571 (Marine Drugs, 2019).
Bridge positions count the residues as written; N and C are the ends. Peptide text beside a SMILES is read from it.

Molecular target: T1, rα3β2 nAChRs expressed in Xenopus laevis oocytes (Rattus norvegicus, UniProt P04757+P12390)
T1 construct: expressed in transfected cells; host or cells: Xenopus laevis oocytes, injected with α3 and β2 mRNA; clones from Dr. Steven Heinemann, Salk Institute
Assay: cell-based
Details: SEM

T1 sequence (P04757 26-499 limits assumed): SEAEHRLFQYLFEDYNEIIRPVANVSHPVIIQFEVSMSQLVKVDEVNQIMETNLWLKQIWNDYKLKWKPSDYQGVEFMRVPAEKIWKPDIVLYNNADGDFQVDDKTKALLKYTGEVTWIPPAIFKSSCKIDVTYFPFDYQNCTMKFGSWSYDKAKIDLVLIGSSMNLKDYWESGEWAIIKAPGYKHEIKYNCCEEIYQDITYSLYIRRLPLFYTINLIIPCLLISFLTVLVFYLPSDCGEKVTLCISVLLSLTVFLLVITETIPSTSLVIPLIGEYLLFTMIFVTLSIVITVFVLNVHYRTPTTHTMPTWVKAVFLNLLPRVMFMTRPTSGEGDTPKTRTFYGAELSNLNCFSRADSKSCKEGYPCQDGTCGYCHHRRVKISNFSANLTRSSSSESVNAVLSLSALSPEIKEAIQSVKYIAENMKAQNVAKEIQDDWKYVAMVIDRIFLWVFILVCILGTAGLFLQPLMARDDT
T1 sequence (P12390 25-500 limits assumed): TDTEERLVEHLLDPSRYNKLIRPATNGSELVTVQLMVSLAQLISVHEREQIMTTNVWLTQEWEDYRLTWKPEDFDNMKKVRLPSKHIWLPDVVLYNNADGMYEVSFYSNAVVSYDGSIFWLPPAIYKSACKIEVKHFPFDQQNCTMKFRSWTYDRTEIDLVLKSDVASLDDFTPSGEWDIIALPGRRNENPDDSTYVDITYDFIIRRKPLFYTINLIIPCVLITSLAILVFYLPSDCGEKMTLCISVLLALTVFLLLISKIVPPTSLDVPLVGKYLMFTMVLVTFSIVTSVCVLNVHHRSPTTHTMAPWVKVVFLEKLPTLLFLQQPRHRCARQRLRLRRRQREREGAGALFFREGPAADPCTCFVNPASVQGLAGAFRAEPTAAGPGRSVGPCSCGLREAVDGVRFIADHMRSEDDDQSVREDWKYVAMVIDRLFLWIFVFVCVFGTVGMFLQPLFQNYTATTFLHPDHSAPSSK

NCCCC[C@@H]1NC(=O)[C@H](CO)NC(=O)[C@H](CO)NC(=O)[C@H](CO)NC(=O)[C@H](Cc2c[nH]c3ccccc23)NC(=O)[C@H](Cc2ccc(O)cc2)NC(=O)[C@@H]2CSSC[C@H](NC(=O)[C@@H](NC(=O)[C@@H](N)Cc3c[nH]c4ccccc34)CSSC[C@@H](C(=O)O)NC(=O)[C@H](Cc3c[nH]c4ccccc34)NC1=O)C(=O)N[C@@H](CO)C(=O)N[C@@H](Cc1ccc(O)cc1)C(=O)N1CCC[C@H]1C(=O)NCC(=O)N2 [KTM] (H-WCCSYPGCYWSSSKWC-OH; disulfide 2-16, 3-8)
IC50: 0.19 ± 0.02 nM
